Test results as given in US20230322767A1, “ARYL SUBSTITUTED PYRROLO-PYRIDINONES AND THERAPEUTIC USES THEREOF” (Bayer Aktiengesellschaft, priority 2020, published 2023).
Where two headings read alike, the source gives them in different places.

How the values were obtained:
Assay type in all cases: biochemical
CSNK1A1 = CSNK1A1 (Homo sapiens (Human), UniProt P48729); assay: CSNK1A1 Assay 2 (ADP-Glo, 1 μM ATP); conditions: median, read-out: CSNK1A1 Assay 2 IC50 [mol/l] (median)
How it was run: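 Enzyme (~0.0375 ng/μL) preincubated 15 min at 22° C with compound in HEPES pH 7.5 buffer, then reacted with 1 μM ATP and biotin-Ahx-KRRRAL-pS-VASLPGL peptide. ADP product measured by ADP-Glo luminescence after 1 h ATP depletion and 1 h detection at 22° C.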

CSNK1D = CSNK1D (Homo sapiens (Human), UniProt P48730); assay: CSNK1D Assay (ADP-Glo, 1 μM ATP); conditions: median, read-out: CSNK1D IC50 [mol/l] (median)
CSNK1D, sequence (P48730 whole entry): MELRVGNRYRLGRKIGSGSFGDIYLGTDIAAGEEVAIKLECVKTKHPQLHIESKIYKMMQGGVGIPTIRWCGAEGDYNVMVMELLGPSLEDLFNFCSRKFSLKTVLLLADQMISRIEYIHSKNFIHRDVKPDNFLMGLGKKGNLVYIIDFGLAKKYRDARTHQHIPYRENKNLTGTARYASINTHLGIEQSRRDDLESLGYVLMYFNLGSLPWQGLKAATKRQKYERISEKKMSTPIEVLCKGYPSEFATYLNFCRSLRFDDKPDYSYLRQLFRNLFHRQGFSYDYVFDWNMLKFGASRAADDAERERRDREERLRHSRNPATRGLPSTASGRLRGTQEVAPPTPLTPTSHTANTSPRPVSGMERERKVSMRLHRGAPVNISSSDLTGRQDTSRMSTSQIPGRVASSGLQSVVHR
How it was run: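 Enzyme preincubated with compound 15 min at 22° C in 50 mM HEPES pH 7.5 buffer with 10 mM MgCl2, 1 mM DTT; kinase reaction run at 1 μM ATP with biotinylated peptide substrate. ADP formed was detected by ADP-Glo luminescence as the measure of activity.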

[1] = biological target: wild-type Epidermal Growth Factor Receptor (EGFR) (Homo sapiens (Human), UniProt P00533); assay: WT-EGFR Kinase Assay (TR-FRET, 2 mM ATP)
wild-type Epidermal Growth Factor Receptor (EGFR), sequence (P00533 669-1210): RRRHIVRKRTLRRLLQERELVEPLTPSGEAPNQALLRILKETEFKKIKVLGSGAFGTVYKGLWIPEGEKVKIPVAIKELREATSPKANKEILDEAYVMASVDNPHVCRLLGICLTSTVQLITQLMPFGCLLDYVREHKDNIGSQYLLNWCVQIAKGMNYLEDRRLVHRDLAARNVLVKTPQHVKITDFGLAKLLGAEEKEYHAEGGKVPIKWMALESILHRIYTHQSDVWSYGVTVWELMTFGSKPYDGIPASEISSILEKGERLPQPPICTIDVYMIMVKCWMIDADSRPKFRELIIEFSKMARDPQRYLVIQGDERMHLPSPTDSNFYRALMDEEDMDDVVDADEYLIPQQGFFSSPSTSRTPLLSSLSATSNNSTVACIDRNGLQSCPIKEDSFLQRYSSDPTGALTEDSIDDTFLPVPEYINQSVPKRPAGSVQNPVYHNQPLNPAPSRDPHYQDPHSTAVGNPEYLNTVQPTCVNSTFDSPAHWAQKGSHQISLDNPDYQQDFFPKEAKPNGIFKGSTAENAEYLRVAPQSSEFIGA
How it was run: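 GST-tagged human EGFR (R669–A1210, Sf9-expressed) preincubated 15 min at 22° C with compound in pH 7.0 Hepes/MgCl2 buffer, then reacted at 2 mM ATP with a biotinylated peptide substrate. Phosphorylation detected by TR-FRET (streptavidin-XL665, Tb-cryptate anti-phosphotyrosine) as the 665/620 nm emission ratio.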

[2] = read-out: EGFR Wildtyp 2 mM ATP IC50 [mol/l] (median), median or individual measurements

CSNK1A1, sequence (P48729 whole entry): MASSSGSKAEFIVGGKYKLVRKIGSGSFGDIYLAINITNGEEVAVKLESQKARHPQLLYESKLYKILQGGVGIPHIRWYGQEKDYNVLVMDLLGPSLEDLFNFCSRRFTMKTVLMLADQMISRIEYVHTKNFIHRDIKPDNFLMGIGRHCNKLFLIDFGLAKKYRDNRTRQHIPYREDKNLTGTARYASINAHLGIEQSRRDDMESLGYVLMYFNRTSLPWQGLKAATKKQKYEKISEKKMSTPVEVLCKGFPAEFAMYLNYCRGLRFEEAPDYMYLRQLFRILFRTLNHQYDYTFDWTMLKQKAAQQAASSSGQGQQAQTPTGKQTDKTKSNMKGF

Structure (SMILES)	IC50 (CSNK1A1)	IC50 (CSNK1D)	IC50 [1, 2]	IC50 ([1]; EGFR Wildtyp 2 mM ATP IC50 [mol/l] (median), median or individual measurements)	IC50 ([1]; read-out: EGFR Wildtyp 2 mM ATP IC50 [mol/l] (median), median or individual measurements, listed as 084)
CN1CC(CC2CC2)c2[nH]c(-c3ccnc(NC(=O)C(CC(F)F)c4ccc(F)cc4)c3)c(-c3ccc(F)cc3)c2C1=O (stereo not shown) [Example 64, N-{4-[7-(cyclopropylmethyl)-3-(4-fluorophenyl)-5-methyl-4-oxo-4,5,6,7-tetrahydro-1H-pyrrolo[3,2-c]pyridin-2-yl]pyridin-2-yl}-4,4-difluoro-2-(4-fluorophenyl)butanamide]	8.5 nM	4.8 nM	> 20000 nM	–	–
O=C(Cc1ccc(F)cc1)Nc1cc(-c2[nH]c3c(c2-c2ccccc2)C(=O)NCC3)ccn1 [Example 72, 2-(4-fluorophenyl)-N-[4-(4-oxo-3-phenyl-4,5,6,7-tetrahydro-1H-pyrrolo[3,2-c]pyridin-2-yl)pyridin-2-yl]acetamide]	0.66 nM	1.3 nM	> 20000 nM	–	–
O=C(Cc1ccc(F)cc1)Nc1cc(-c2[nH]c3cc[nH]c(=O)c3c2-c2ccccc2)ccn1 [Example 73, 2-(4-fluorophenyl)-N-[4-(4-oxo-3-phenyl-4,5-dihydro-1H-pyrrolo[3,2-c]pyridin-2-yl)pyridin-2-yl]acetamide]	1.9 nM	5.4 nM	> 20000 nM	–	–
Cn1cc(Cl)c2[nH]c(-c3ccnc(NC(=O)Cc4ccc(F)cc4)c3)c(-c3ccccc3)c2c1=O [Example 79, N-[4-(7-chloro-5-methyl-4-oxo-3-phenyl-4,5-dihydro-1H-pyrrolo[3,2-c]pyridin-2-yl)pyridin-2-yl]-2-(4-fluorophenyl)acetamide]	5.1 nM	4.8 nM	> 20000 nM	–	–
CC1(C)Cc2[nH]c(-c3ccnc(NC(=O)Cc4ccc(F)cc4)c3)c(-c3ccccc3)c2C(=O)N1 [Example 82, N-[4-(6,6-dimethyl-4-oxo-3-phenyl-4,5,6,7-tetrahydro-1H-pyrrolo[3,2-c]pyridin-2-yl)pyridin-2-yl]-2-(4-fluorophenyl)acetamide]	1.3 nM	2.4 nM	> 20000 nM	–	–
CC1(C)Cc2[nH]c(-c3ccnc(NC(=O)Cc4ccc(F)cc4)c3)c(-c3ccc(F)cc3)c2C(=O)N1 [Example 83, 2-(4-fluorophenyl)-N-{4-[3-(4-fluorophenyl)-6,6-dimethyl-4-oxo-4,5,6,7-tetrahydro-1H-pyrrolo[3,2-c]pyridin-2-yl]pyridin-2-yl}acetamide]	1.9 nM	3.5 nM	> 20000 nM	–	–
CC1(C)Cc2[nH]c(-c3ccnc(NC(=O)Cc4ccc(F)cc4)c3)c(-c3ccccc3F)c2C(=O)N1 [Example 84, 2-(4-fluorophenyl)-N-{4-[3-(2-fluorophenyl)-6,6-dimethyl-4-oxo-4,5,6,7-tetrahydro-1H-pyrrolo[3,2-c]pyridin-2-yl]pyridin-2-yl}acetamide]	3.4 nM	4.8 nM	–	> 20000 nM	16000 nM
CC1(C)Cc2[nH]c(-c3ccnc(NC(=O)Cc4ccc(F)cc4)c3)c(-c3cccc(F)c3)c2C(=O)N1 [Example 85, 2-(4-fluorophenyl)-N-{4-[3-(3-fluorophenyl)-6,6-dimethyl-4-oxo-4,5,6,7-tetrahydro-1H-pyrrolo[3,2-c]pyridin-2-yl]pyridin-2-yl}acetamide]	1.9 nM	3.9 nM	> 5710 nM	–	–
Cc1cccc(-c2c(-c3ccnc(NC(=O)Cc4ccc(F)cc4)c3)[nH]c3c2C(=O)NC(C)(C)C3)c1 [Example 86, N-{4-[6,6-dimethyl-3-(3-methylphenyl)-4-oxo-4,5,6,7-tetrahydro-1H-pyrrolo[3,2-c]pyridin-2-yl]pyridin-2-yl}-2-(4-fluorophenyl)acetamide]	4 nM	5.2 nM	> 20000 nM	–	–
CC(C(=O)Nc1cc(-c2[nH]c3c(c2-c2ccccc2F)C(=O)NC(C)(C)C3)ccn1)c1ccc(F)cc1 (stereo not shown) [Example 87, 2-(4-fluorophenyl)-N-{4-[3-(2-fluorophenyl)-6,6-dimethyl-4-oxo-4,5,6,7-tetrahydro-1H-pyrrolo[3,2-c]pyridin-2-yl]pyridin-2-yl}propanamide]	12 nM	13 nM	> 20000 nM	–	–
CC1(C)Cc2[nH]c(-c3ccnc(NC(=O)Cc4ccc(F)cc4)c3)c(-c3ccc(Cl)cc3)c2C(=O)N1 [Example 90, N-{4-[3-(4-chlorophenyl)-6,6-dimethyl-4-oxo-4,5,6,7-tetrahydro-1H-pyrrolo[3,2-c]pyridin-2-yl]pyridin-2-yl}-2-(4-fluorophenyl)acetamide]	3.2 nM	4.1 nM	> 20000 nM	–	–
Cc1ccc(-c2c(-c3ccnc(NC(=O)Cc4ccc(F)cc4)c3)[nH]c3c2C(=O)NC(C)(C)C3)cc1 [Example 92, N-{4-[6,6-dimethyl-3-(4-methylphenyl)-4-oxo-4,5,6,7-tetrahydro-1H-pyrrolo[3,2-c]pyridin-2-yl]pyridin-2-yl}-2-(4-fluorophenyl)acetamide]	4.5 nM	5.7 nM	> 20000 nM	–	–
CC1(C)Cc2[nH]c(-c3ccnc(NC(=O)Cc4ccc(F)cc4)c3)c(-c3cccnc3)c2C(=O)N1 [Example 93, N-{4-[6,6-dimethyl-4-oxo-3-(pyridin-3-yl)-4,5,6,7-tetrahydro-1H-pyrrolo[3,2-c]pyridin-2-yl]pyridin-2-yl}-2-(4-fluorophenyl)acetamide]	4 nM	9.3 nM	> 20000 nM	–	–
COCCNC(=O)c1ccc(CC(=O)Nc2cc(-c3[nH]c4c(c3-c3ccc(F)cc3)C(=O)N(C)CC4)ccn2)cc1 [Example 140, 4-[2-({4-[3-(4-fluorophenyl)-5-methyl-4-oxo-4,5,6,7-tetrahydro-1H-pyrrolo[3,2-c]pyridin-2-yl]pyridin-2-yl}amino)-2-oxoethyl]-N-(2-methoxyethyl)benzamide]	1.6 nM	1.8 nM	> 20000 nM	–	–
COCCN(C)C(=O)c1ccc(CC(=O)Nc2cc(-c3[nH]c4c(c3-c3ccc(F)cc3)C(=O)N(C)CC4)ccn2)cc1 [Example 141, 4-[2-({4-[3-(4-fluorophenyl)-5-methyl-4-oxo-4,5,6,7-tetrahydro-1H-pyrrolo[3,2-c]pyridin-2-yl]pyridin-2-yl}amino)-2-oxoethyl]-N-(2-methoxyethyl)-N-methylbenzamide]	3.6 nM	2.7 nM	> 20000 nM	–	–
COCCNC(=O)c1ccc(CC(=O)Nc2cc(-c3[nH]c4ccn(C)c(=O)c4c3-c3ccc(F)cc3)ccn2)cc1 [Example 142, 4-[2-({4-[3-(4-fluorophenyl)-5-methyl-4-oxo-4,5-dihydro-1H-pyrrolo[3,2-c]pyridin-2-yl]pyridin-2-yl}amino)-2-oxoethyl]-N-(2-methoxyethyl)benzamide]	2.7 nM	3.8 nM	> 20000 nM	–	–
COCCN(C)C(=O)c1ccc(CC(=O)Nc2cc(-c3[nH]c4ccn(C)c(=O)c4c3-c3ccc(F)cc3)ccn2)cc1 [Example 143, 4-[2-({4-[3-(4-fluorophenyl)-5-methyl-4-oxo-4,5-dihydro-1H-pyrrolo[3,2-c]pyridin-2-yl]pyridin-2-yl}amino)-2-oxoethyl]-N-(2-methoxyethyl)-N-methylbenzamide]	4 nM	2.7 nM	> 20000 nM	–	–
CN1CCc2[nH]c(-c3ccnc(NC(=O)Cc4ccc(C(=O)N5CCNCC5)cc4)c3)c(-c3ccc(F)cc3)c2C1=O [Example 144, N-{4-[3-(4-fluorophenyl)-5-methyl-4-oxo-4,5,6,7-tetrahydro-1H-pyrrolo[3,2-c]pyridin-2-yl]pyridin-2-yl}-2-[4-(piperazine-1-carbonyl)phenyl]acetamide]	2 nM	3 nM	3620 nM	–	–
